What was measured:
[1] = Cytotoxicity in MDBK cells assessed as reduction in cell viability; format: cell-based, Bos taurus; details: cattle
[2] = tested on: Bovine viral diarrhea virus 1; test: Antiviral activity against BVDV1 Nose infected in MDBK cells assessed as inhibition of virus replication-induced cell destruction; format: functional, organism-based; details: Bovine viral diarrhea virus isolates and strains
[3] = Selectivity index, ratio of CC50 for MDBK cells to EC50 for antiviral activity against BVDV1 Nose

EC50 [2]	SMILES	CC50 [1]	Ratio CC50/EC50 [3]
8.4 µM	CC[Si](CC)(c1ccc(OCC(=O)C(C)(C)C)c(C)c1)c1ccc(OCC(=O)C(C)(C)C)c(C)c1	> 100 µM	
8.6 µM	CCC(CC)(c1ccc(O)c(C)c1)c1ccc(OCC(=O)C(C)(C)C)c(C)c1	5.23 µM	
10 µM	CCN(CC)C(=O)Oc1ccc(C(CC)(CC)c2ccc(NC(C)=O)c(C)c2)cc1C	50 µM	5
13 µM	Cc1cc(C2(c3ccc(OCC(=O)C(C)(C)C)c(C)c3)CCCC2)ccc1OCC(=O)C(C)(C)C	> 100 µM	
8 µM	CC[Si](CC)(c1ccc(O)cc1)c1ccc(OCC(=O)C(C)(C)C)cc1	46.8 µM	5.85
> 42 µM	Nc1ccc(C2(c3ccc(O)cc3)CCCCC2)cc1	42 µM	
6.2 µM	CC[Si](CC)(c1ccc(OCC(=O)C(C)(C)C)cc1)c1ccc(OCC(=O)C(C)(C)C)cc1	> 100 µM	
8.9 µM	CCC(CC)(c1ccc(NCC(=O)C(C)(C)C)c(C)c1)c1ccc(OCC(=O)C(C)(C)C)c(C)c1	82 µM	9.21
28 µM	CCC(CC)(c1ccc(OCC(=O)C(C)(C)C)c(C)c1)c1ccc(N(CC(=O)C(C)(C)C)Cc2ccccc2)c(C)c1	> 100 µM	
12 µM	Cc1cc(C(C)(C)c2ccc(OCC(=O)C(C)(C)C)c(C)c2)ccc1OCC(=O)C(C)(C)C	> 100 µM	
12.8 µM	Cc1cc([Si](C)(C)c2ccc(OCC(=O)C(C)(C)C)c(C)c2)ccc1OCC(=O)C(C)(C)C	> 100 µM	
25 µM	CCC(CC)(c1ccc(NCC(O)C(C)(C)C)c(C)c1)c1ccc(OC[C@@H](O)CO)c(C)c1 (stereo partly drawn)	43 µM	1.72
6.3 µM	Cc1cc(C2(c3ccc(OCC(=O)C(C)(C)C)c(C)c3)CCC2)ccc1OCC(=O)C(C)(C)C	> 100 µM	

SMILES	EC50 [2]	CC50 [1]	Ratio CC50/EC50 [3]
CCC(CC)(c1ccc(O)cc1)c1ccc(O)cc1	10 µM	39 µM	3.9

Source: ChEMBL document CHEMBL1782006, “Discovery of diphenylmethane analogs as anti-bovine diarrhea viral agents” (Bioorg Med Chem Lett, 2009)
